The source of these data is patent publication US10927123B2, “Modulators of the beta-3 adrenergic receptor useful for the treatment or prevention of disorders related thereto” (Arena Pharmaceuticals, Inc., priority 2016, dated 2021).

The target in this assay is Beta-3 Adrenergic Receptor (Homo sapiens (Human), UniProt P13945). The experiment in a line: HTRF cAMP antagonist assay (IC50 determination). Format: cell-based. Conditions: CHO-K1 cells stably expressing recombinant receptor; antagonism of isoproterenol at EC90; cAMP readout. In a few lines:
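CHO-K1 cells stably expressing receptor, 1500 cells/well, preincubated briefly with 10-point 5-fold compound series (top final typically 10 or 100 μM) in PBS with 1 mM IBMX, then challenged with isoproterenol at EC90 for 1 h at room temperature. cAMP read by HTRF against on-plate standard curve; IC50 from dose-response.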

Chain of Beta-3 Adrenergic Receptor (P13945 whole entry, species assumed): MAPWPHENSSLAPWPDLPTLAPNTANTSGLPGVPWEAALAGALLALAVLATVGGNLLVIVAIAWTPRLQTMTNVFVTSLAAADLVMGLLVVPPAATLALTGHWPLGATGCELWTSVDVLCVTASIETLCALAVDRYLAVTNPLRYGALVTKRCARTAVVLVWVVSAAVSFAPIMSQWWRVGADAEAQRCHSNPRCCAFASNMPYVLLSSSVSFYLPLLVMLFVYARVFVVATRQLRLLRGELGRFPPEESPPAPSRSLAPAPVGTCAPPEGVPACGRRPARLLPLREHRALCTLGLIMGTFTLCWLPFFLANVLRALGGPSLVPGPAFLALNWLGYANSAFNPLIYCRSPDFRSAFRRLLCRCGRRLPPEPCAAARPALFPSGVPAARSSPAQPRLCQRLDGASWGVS

As to `Cc1nc2c(cc1S(=O)(=O)N1CCC3(CC1)C[C@@H](NC[C@H](O)COc1cccc(S(=O)(=O)C4CC4)c1)CO3)N(C)CCO2` [Compound 259, (S)-1-(3-(cyclopropylsulfonyl)phenoxy)-3-((R)-8-(1,6-dimethyl-2,3-dihydro-1H-pyrido[2,3-b][1,4]oxazin-7-ylsulfonyl)-1-oxa-8-azaspiro[4.5]decan-3-ylamino)propan-2-ol], the IC50 amounted to 158 nM. Consider `Cc1c(S(=O)(=O)N2CCC3(CC2)C[C@@H](NC[C@H](O)COc2cccc(S(=O)(=O)C4(CO)CC4)c2)CO3)cnc2c1N(C)CCO2` [Compound 260, (S)-1-((R)-8-(1,8-dimethyl-2,3-dihydro-1H-pyrido[2,3-b][1,4]oxazin-7-ylsulfonyl)-1-oxa-8-azaspiro[4.5]decan-3-ylamino)-3-(3-(1-(hydroxymethyl)cyclopropylsulfonyl)phenoxy)propan-2-ol], for which the IC50 amounted to 178 nM. The same measure for `CCS(=O)(=O)c1cccc(OC[C@@H](O)CN[C@@H]2COC3(CCN(S(=O)(=O)c4ccc(OC)c(-c5ccc(C6(N)CC6)cc5)c4)CC3)C2)c1` [Compound 261, (S)-1-((S)-8-(4′-(1-aminocyclopropyl)-6-methoxybiphenyl-3-ylsulfonyl)-1-oxa-8-azaspiro[4.5]decan-3-ylamino)-3-(3-(ethylsulfonyl)phenoxy)propan-2-ol]: 38.8 nM. In the case of `CC(C)(C)NCc1ccc(-c2cccc(S(=O)(=O)N3CCC4(CC3)C[C@@H](NC[C@H](O)COc3cccc(S(=O)(=O)C5(CO)CC5)c3)CO4)c2)cc1` [Compound 262, (S)-1-((R)-8-(4′-((tert-butylamino)methyl)biphenyl-3-ylsulfonyl)-1-oxa-8-azaspiro[4.5]decan-3-ylamino)-3-(3-(1-(hydroxymethyl)cyclopropylsulfonyl)phenoxy)propan-2-ol], the IC50 was 982 nM. With `CCC(C)(C)NCc1ccc(-c2cccc(S(=O)(=O)N3CCC4(CC3)C[C@@H](NC[C@H](O)COc3cccc(S(=O)(=O)C5(CO)CC5)c3)CO4)c2)cc1` [Compound 263, (S)-1-(3-(1-(hydroxymethyl)cyclopropylsulfonyl)phenoxy)-3-((R)-8-(4′-((tert-pentylamino)methyl)biphenyl-3-ylsulfonyl)-1-oxa-8-azaspiro[4.5]decan-3-ylamino)propan-2-ol], the IC50 was 755 nM.

In the case of `O=S(=O)(c1cccc(-c2ccc(CNCC(F)(F)F)cc2)c1)N1CCC2(CC1)C[C@@H](NC[C@H](O)COc1cccc(S(=O)(=O)C3(CO)CC3)c1)CO2` [Compound 264, (S)-1-(3-(1-(hydroxymethyl)cyclopropylsulfonyl)phenoxy)-3-((R)-8-(4′-((2,2,2-trifluoroethylamino)methyl)biphenyl-3-ylsulfonyl)-1-oxa-8-azaspiro[4.5]decan-3-ylamino)propan-2-ol], the IC50 came to 980 nM. The same measure for `O=S(=O)(c1cccc(-c2ccc(CN3CCC3)cc2)c1)N1CCC2(CC1)C[C@@H](NC[C@H](O)COc1cccc(S(=O)(=O)C3(CO)CC3)c1)CO2` [Compound 265, (S)-1-((R)-8-(4′-(azetidin-1-ylmethyl)biphenyl-3-ylsulfonyl)-1-oxa-8-azaspiro[4.5]decan-3-ylamino)-3-(3-(1-(hydroxymethyl)cyclopropylsulfonyl)phenoxy)propan-2-ol]: 374 nM; for `O=S(=O)(c1cccc(-c2ccc(CN3CCOCC3)cc2)c1)N1CCC2(CC1)C[C@@H](NC[C@H](O)COc1cccc(S(=O)(=O)C3(CO)CC3)c1)CO2` [Compound 266, (S)-1-(3-(1-(hydroxymethyl)cyclopropylsulfonyl)phenoxy)-3-((R)-8-(4′-(morpholinomethyl)biphenyl-3-ylsulfonyl)-1-oxa-8-azaspiro[4.5]decan-3-ylamino)propan-2-ol]: 1290 nM; for `COCCNCc1ccc(-c2cccc(S(=O)(=O)N3CCC4(CC3)C[C@@H](NC[C@H](O)COc3cccc(S(=O)(=O)C5(CO)CC5)c3)CO4)c2)cc1` [Compound 267, (S)-1-(3-(1-(hydroxymethyl)cyclopropylsulfonyl)phenoxy)-3-((R)-8-(4′-((2-methoxyethylamino)methyl)biphenyl-3-ylsulfonyl)-1-oxa-8-azaspiro[4.5]decan-3-ylamino)propan-2-ol]: 442 nM. The same measure for `CCNCc1ccc(-c2cccc(S(=O)(=O)N3CCC4(CC3)C[C@@H](NC[C@H](O)COc3cccc(S(=O)(=O)C5(CO)CC5)c3)CO4)c2)cc1` [Compound 268, (S)-1-((R)-8-(4′-((ethylamino)methyl)biphenyl-3-ylsulfonyl)-1-oxa-8-azaspiro[4.5]decan-3-ylamino)-3-(3-(1-(hydroxymethyl)cyclopropylsulfonyl)phenoxy)propan-2-ol]: 138 nM. The same measure for `O=S(=O)(c1cccc(-c2ccc(CNC3CCC3)cc2)c1)N1CCC2(CC1)C[C@@H](NC[C@H](O)COc1cccc(S(=O)(=O)C3(CO)CC3)c1)CO2` [Compound 269, (S)-1-((R)-8-(4′-((cyclobutylamino)methyl)biphenyl-3-ylsulfonyl)-1-oxa-8-azaspiro[4.5]decan-3-ylamino)-3-(3-(1-(hydroxymethyl)cyclopropylsulfonyl)phenoxy)propan-2-ol]: 400 nM; for `NCCNCc1ccc(-c2cccc(S(=O)(=O)N3CCC4(CC3)C[C@@H](NC[C@H](O)COc3cccc(S(=O)(=O)C5(CO)CC5)c3)CO4)c2)cc1` [Compound 270, (S)-1-((R)-8-(4′-((2-aminoethylamino)methyl)biphenyl-3-ylsulfonyl)-1-oxa-8-azaspiro[4.5]decan-3-ylamino)-3-(3-(1-(hydroxymethyl)cyclopropylsulfonyl)phenoxy)propan-2-ol]: 92.3 nM; for `NCCCNCc1ccc(-c2cccc(S(=O)(=O)N3CCC4(CC3)C[C@@H](NC[C@H](O)COc3cccc(S(=O)(=O)C5(CO)CC5)c3)CO4)c2)cc1` [Compound 271, (S)-1-((R)-8-(4′-((3-aminopropylamino)methyl)biphenyl-3-ylsulfonyl)-1-oxa-8-azaspiro[4.5]decan-3-ylamino)-3-(3-(1-(hydroxymethyl)cyclopropylsulfonyl)phenoxy)propan-2-ol]: 206 nM.

Consider `CC(C)CNCc1ccc(-c2cccc(S(=O)(=O)N3CCC4(CC3)C[C@@H](NC[C@H](O)COc3cccc(S(=O)(=O)C5(CO)CC5)c3)CO4)c2)cc1` [Compound 272, (S)-1-(3-(1-(hydroxymethyl)cyclopropylsulfonyl)phenoxy)-3-((R)-8-(4′-((isobutylamino)methyl)biphenyl-3-ylsulfonyl)-1-oxa-8-azaspiro[4.5]decan-3-ylamino)propan-2-ol], for which the IC50 is 566 nM. As for `C[C@H]1CN(C)c2cc(S(=O)(=O)N3CCC4(CC3)C[C@@H](NC[C@H](O)COc3cccc(S(=O)(=O)C5CC5)c3)CO4)cnc2O1` [Compound 274, (S)-1-(3-(cyclopropylsulfonyl)phenoxy)-3-((R)-8-((S)-1,3-dimethyl-2,3-dihydro-1H-pyrido[2,3-b][1,4]oxazin-7-ylsulfonyl)-1-oxa-8-azaspiro[4.5]decan-3-ylamino)propan-2-ol], the figure is 38.4 nM; as for `Cc1c(S(=O)(=O)N2CCC3(CC2)C[C@@H](NC[C@H](O)COc2cccc(S(=O)(=O)C4CC4)c2)CO3)cnc2c1N(C)CCO2` [Compound 275, (S)-1-(3-(cyclopropylsulfonyl)phenoxy)-3-((R)-8-(1,8-dimethyl-2,3-dihydro-1H-pyrido[2,3-b][1,4]oxazin-7-ylsulfonyl)-1-oxa-8-azaspiro[4.5]decan-3-ylamino)propan-2-ol], 62.3 nM.

As to `Cc1c(S(=O)(=O)N2CCC3(CC2)C[C@@H](NC[C@H](O)COc2cccc(S(=O)(=O)CC(N)=O)c2)CO3)cnc2c1N(C)CCO2` [Compound 276, 2-(3-((S)-3-((R)-8-(1,8-dimethyl-2,3-dihydro-1H-pyrido[2,3-b][1,4]oxazin-7-ylsulfonyl)-1-oxa-8-azaspiro[4.5]decan-3-ylamino)-2-hydroxypropoxy)phenylsulfonyl)acetamide], the IC50 amounted to 1810 nM.

For the compound `C[C@H]1CN(C)c2cc(S(=O)(=O)N3CCC4(CC3)C[C@H](NC[C@H](O)COc3cccc(S(=O)(=O)C5CC5)c3)CO4)cnc2O1` [Compound 277, (S)-1-(3-(cyclopropylsulfonyl)phenoxy)-3-((S)-8-((S)-1,3-dimethyl-2,3-dihydro-1H-pyrido[2,3-b][1,4]oxazin-7-ylsulfonyl)-1-oxa-8-azaspiro[4.5]decan-3-ylamino)propan-2-ol], the IC50 was 16.5 nM. As to `C[C@H]1CN(C)c2cc(S(=O)(=O)N3CCC4(CC3)C[C@@H](NC[C@H](O)COc3cccc(S(=O)(=O)CC(N)=O)c3)CO4)cnc2O1` [Compound 278, 2-(3-((S)-3-((R)-8-((S)-1,3-dimethyl-2,3-dihydro-1H-pyrido[2,3-b][1,4]oxazin-7-ylsulfonyl)-1-oxa-8-azaspiro[4.5]decan-3-ylamino)-2-hydroxypropoxy)phenylsulfonyl)acetamide], the IC50 is 586 nM. As for `Cn1cnc2cc(S(=O)(=O)N3CCC4(CC3)C[C@@H](NC[C@H](O)COc3cccc(S(=O)(=O)C5CC5)c3)CO4)cnc21` [Compound 279, (S)-1-(3-(cyclopropylsulfonyl)phenoxy)-3-((R)-8-(3-methyl-3H-imidazo[4,5-b]pyridin-6-ylsulfonyl)-1-oxa-8-azaspiro[4.5]decan-3-ylamino)propan-2-ol], the figure is 39.7 nM.

On to `O=C1NCc2ncc(S(=O)(=O)N3CCC4(CC3)C[C@@H](NC[C@H](O)COc3cccc(S(=O)(=O)C5CC5)c3)CO4)cc21` [Compound 280, 3-((R)-3-((S)-3-(3-(cyclopropylsulfonyl)phenoxy)-2-hydroxypropylamino)-1-oxa-8-azaspiro[4.5]decan-8-ylsulfonyl)-6,7-dihydro-5H-pyrrolo[3,4-b]pyridin-5-one], for which the IC50 is 96.4 nM. In the case of `O=c1[nH]c2cc(S(=O)(=O)N3CCC4(CC3)C[C@@H](NC[C@H](O)COc3cccc(S(=O)(=O)C5CC5)c3)CO4)cnc2[nH]1` [Compound 281, 6-((R)-3-((S)-3-(3-(cyclopropylsulfonyl)phenoxy)-2-hydroxypropylamino)-1-oxa-8-azaspiro[4.5]decan-8-ylsulfonyl)-1H-imidazo[4,5-b]pyridin-2(3H)-one], the IC50 came to 57.9 nM.

As a reminder, the IC50 is the concentration that inhibits the measured activity by half.
